{
  "source": "paper PMC6468747",
  "about": "(Cancers, 2019)",
  "key": {"[1]": {"tested_on": "Br-001 tumor xenografts", "test": "Patient-derived TNBC xenograft (PDX), IP", "format": "in vivo, mice", "conditions": "10 mg/kg/day IP", "method": "Female NSG (NOD.Cg-PrkdcscidIl2rgtm1Wjl/SzJ) mice (Jackson Laboratory) 5–6 weeks of age were housed under complete aseptic conditions, fed autoclaved pellets and sterile water ad libitum. Primary triple negative breast cancer tissue from a patient in University of Maryland Medical Center ([…]) was excised during surgery, de-identified and then implanted into the mammary fat pad of female NSG mice. After expansion and viable freeze back, breast PDX (Br-001) was grown in three mice as a subcutaneous tumor. When tumors reached approximately 600–800 mm^3, mice were euthanized, tumors excised aseptically and cut into 3 mm × 3 mm pieces and re-implanted subcutaneously in female NSG mice. The established xenografts were subsequently passaged from mouse to mouse to expand xenograft numbers. […] Tumors were measured and processed as described for the MDA-MB-231 xenograft model."}, "[2]": {"tested_on": "MDA-MB-453 (LAR)", "test": "MTT cell growth assay, 7 days", "format": "cell-based", "conditions": "Homo sapiens, MDA-MB-453, 168 h", "method": "(§1) Figure 3 In vitro characterization, pharmacokinetics and toxicity profile of VNLG-152R and its two enantiomers. (A) HPLC chromatograms racemic VNLG-152R (left panel) and the resolved enantiomers VNLG-152E1 and VNLG-152E2 (right panel). The conditions of HPLC procedure are presented in Supplementary Materials. (B) Table summarizing GI50 values (µM) each cell line treated with VNLG-152R and its enantiomers. TNBC cell subtypes were treated with listed compound (0.1 nmol/L–100 µmol/L) for 7 days and the GI50 values for the anti-proliferative effects of the compounds were determined from dose response curves (by a nonlinear regression analysis using Graph Pad Prism). Data represents the results from six independent experiments for each cell line. (C) Plasma concentration versus time profile after intravenous (IV, 2 mg/kg each, top panel) or oral (PO, 20 mg/kg each, bottom panel) of VNLG-152R (red), VNLG-152E1 (purple) and VNLG-152E2 (blue) to female CD1 mice. Values represent the mean plasma concentrations from three mice per time point. (D) Table of the pharmacokinetic parameters of various compounds after IV and PO dosing. AUC = area under the curve, T1/2 = elimination half-life, Cmax = maximum plasma concentration, F (%) = oral bioavailability. (E) Effects of VNLG-152R, VNLG-152E1 and VNLG-152E2 on body weight and clinical observations at chronic dose termination of study. Three different doses, i.e., 10, 25, and 50 mg/kg/day (formulated in 40% β-cyclodextrin in saline) of each compound were administered daily by oral gavage for 14 days. Each group consisted of three mice. Loss in body weight, a clinical sign of toxicity was observed during the 14 days of dosing and the maximum tolerated dose (MTD) was estimated following established procedures. Changes in body weight were scored on a scale of 0–4 as follows as described under methods. […]"}, "[3]": {"tested_on": "MDA-MB-231 (MSL)", "test": "MTT cell growth assay, 7 days", "format": "cell-based", "conditions": "Homo sapiens, MDA-MB-231, 168 h", "method": "as §1"}, "[4]": {"tested_on": "MDA-MB-468 (BL1)", "test": "MTT cell growth assay, 7 days", "format": "cell-based", "conditions": "Homo sapiens, MDA-MB-468, 168 h", "method": "as §1"}, "[5]": {"tested_on": "MDA-MB-436 (MSL)", "test": "MTT cell growth assay, 7 days", "format": "cell-based", "conditions": "Homo sapiens, MDA-MB-436, 168 h", "method": "as §1"}, "[6]": {"tested_on": "MFM-223 (LAR)", "test": "MTT cell growth assay, 7 days", "format": "cell-based", "conditions": "Homo sapiens, MFM-223, 168 h", "method": "as §1"}, "[7]": {"tested_on": "HCC-1806 (BL2)", "test": "MTT cell growth assay, 7 days", "format": "cell-based", "conditions": "Homo sapiens, HCC1806, 168 h", "method": "as §1"}, "[8]": {"tested_on": "Br-001 xenograft tumors", "test": "Patient-derived TNBC xenograft (PDX), PO, racemate vs E1", "format": "in vivo, NSG mice", "conditions": "20 mg/kg PO", "method": "The second PDX tumor model experiment was conducted to assess the efficacy of VNLG-152R versus VNLG-152E1 following PO administration. When the tumor volumes had reached about 100 mm^3, the mice were randomly divided into three groups of five mice each. The control group received vehicle (PO) and the other two groups received VNLG-152R (20 mg/kg, PO, once daily), and VNLG-152E1 (20 mg/kg, PO, once daily) five days/week. These treatments continued for 15 days and the tumors were measured and processed as described above."}, "[9]": {"tested_on": "MDA-MB-231 cells", "test": "Multiplex Luminex supernatant cytokine analysis", "format": "cell-based, human", "conditions": "72 h, cell supernatants", "method": "Supernatants from the MDA-MB-231 (TNBC) cells in Fetal Bovine Serum (FBS) containing media were treated with various concentrations of VNLG-12R for 72 h, were collected, and various cytokines and growth factor concentrations (CLCX-1, IL-6, IL8 and TNF-α) were determined by Luminex multiplex assay kit (Millipore, Billerica, MA, USA) according to the manufacturer’s instructions. The expressions of secreted cytokines were read on Luminex 100 reader. The data was then analyzed using the BioPlex Software (BioRad, Hercules, CA, USA). The Luminex multiplex assays were conducted at the University of Maryland School of Medicine Cytokine Core Laboratory (Baltimore, MD, USA)."}, "[10]": {"target": "T1, Mnk1 (Homo sapiens, UniProt Q9BUB5)", "T1 construct": "incubated with recombinant full length Mnk1 proteins or cell lysates overnight at 4 °C; GST", "T1 sequence (Q9BUB5 whole entry)": "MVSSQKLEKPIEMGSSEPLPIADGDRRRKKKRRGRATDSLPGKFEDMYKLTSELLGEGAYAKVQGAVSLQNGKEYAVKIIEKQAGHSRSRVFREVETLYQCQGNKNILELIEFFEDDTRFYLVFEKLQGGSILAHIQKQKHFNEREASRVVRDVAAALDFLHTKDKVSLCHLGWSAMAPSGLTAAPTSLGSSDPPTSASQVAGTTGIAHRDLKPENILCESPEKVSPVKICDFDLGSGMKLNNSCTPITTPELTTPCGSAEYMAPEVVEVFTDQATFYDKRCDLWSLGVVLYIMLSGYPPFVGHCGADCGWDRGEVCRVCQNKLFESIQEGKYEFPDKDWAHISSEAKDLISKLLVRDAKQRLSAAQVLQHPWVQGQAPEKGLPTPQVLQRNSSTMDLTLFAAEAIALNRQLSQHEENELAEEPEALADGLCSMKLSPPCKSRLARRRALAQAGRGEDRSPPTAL", "test": "Surface plasmon resonance (OpenSPR) binding to immobilized GST-Mnk1", "conditions": "SPR, 1.25, 10 and 30 µM, 1:1 Langmuir model, 30 °C, scouting analysis; read-out: dissociation constant (KD)", "method": "Purified recombinant Mnk1 protein with GST tag (2.5 µg/mL) was fixed on GST sensor chip (Nicoya) by capture-coupling, then VNLG-152R (1.25, 10 and 30 µM) were injected (flow rate of 20 µL/min) sequentially into the chamber in running buffer (PBS-T with 10% DMSO). The interaction of Mnk1 with VNLG-152R was detected by Open SPRTM (Nicoya Lifesciences, Kitchener, ON, Canada) at 30 °C. The chip was regenerated with regeneration solution (10 mM glycine-HCL) at a flow rate of 150 µL/min. The close curve fitting to the sensograms were calculated by global fitting curves (1:1 Langmuir binding model). The data was retrieved and analyzed with TraceDraw software (Kitchener, ON, Canada)."}, "[11]": {"tested_on": "EMT-related proteins", "test": "Western blot of EMT-related proteins in MDA-MB-231 and MDA-MB-468 cells", "format": "cell-based, human", "conditions": "24 h", "method": "MDA-MB-231, MDA-MB-468, MDA-MB-436, MDA-MB-453, HCC-1806, and MFM-223 cells were purchased from American Type Culture Collection (ATCC, Manassas, VA, USA), and authenticated at the Biopolymer/Genomics Core Facility, University of Maryland Baltimore. Cells were tested for mycoplasma contamination at the University of Maryland Marlene and Stewart Greenebaum Cancer Center (UMGCC) Translational Shared Service. Cells were cultured in the recommended media supplemented with 10% FBS and plated 1 day prior to treatment. Cells were treated with the indicated dose and time in the figure at 37 °C in 5% CO2. Protein lysates were harvested in RIPA lysis buffer (Sigma). Western blotting was done as described previously with antibodies described above."}},
  "data": [
    {"smiles": "CC1=C(/C=C/C(C)=C/C=C/C(C)=C/C(=O)Nc2ccc(F)cc2)C(C)(C)CCC1n1ccnc1", "note": "(racemic) [VNLG-152R, 4-(±)-(1H-imidazol-1-yl)-N-(4-fluorophenyl)-(E)-retinamide]", "values": [
      {"measurement": "changes in body weights", "setting": "[1]", "value": "No significant changes in body weights were observed"},
      {"measurement": "tumor growth inhibition (TGI)", "setting": "[1]; 5 days a week, 17 days", "value": 73.3, "unit": "%"},
      {"measurement": "GI50", "setting": "[2]", "value": "740 ± 30", "unit": "nM"},
      {"measurement": "GI50", "setting": "[3]", "value": "620 ± 30", "unit": "nM"},
      {"measurement": "GI50", "setting": "[4]", "value": "890 ± 60", "unit": "nM"},
      {"measurement": "GI50", "setting": "[5]", "value": "890 ± 30", "unit": "nM"},
      {"measurement": "GI50", "setting": "[6]", "value": "1860 ± 120", "unit": "nM"},
      {"measurement": "GI50", "setting": "[7]", "value": "810 ± 40", "unit": "nM"},
      {"measurement": "changes in body weights", "setting": "[8]", "value": "No changes in body weights were observed"},
      {"measurement": "TGI", "setting": "[8]; 5 days per week, 15 days", "value": 82, "unit": "%"},
      {"measurement": "secreted IL-6 and IL-8, TNFα and chemokine CXCL1", "setting": "[9]", "value": "dose-dependent reduction"},
      {"measurement": "Kd", "setting": "[10]", "value": 6460, "unit": "nM"},
      {"measurement": "expression of N-Cadherin, β-catenin, MMP-2, MMP-9, Snail, Slug, Vimentin and TCF/ZEB-1", "setting": "[11]", "value": "concentration-dependent decreases"}
    ]}
  ]
}
